Test systems include LOX IMVI melanoma; HOP-62 NSCLC; SF-295 CNS; SK-MEL-28 melanoma; HOP-92 NSCLC; NCI-H226 lung; K-562 leukemia; OVCAR-3 ovarian; HT29 colon; MCF7 breast.
Experiment in all cases: DTP human tumour cell line panel, 48 h

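Test compounds were applied to cells in 96-well plates for 48 hours at 5 doses. At the GI50, growth is halved. Definition used: TGI = concentration required for complete inhibition of growth.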

Usually GI50 stands for the concentration at which growth is held to half of that of the control. By TGI is commonly meant the concentration at which net growth stops. Low values mean more potent growth arrest, high ones less potent growth arrest. For the molecule `COc1ccc2sc3c(NCCCN(C)C)nc4ccccc4c3c(=O)c2c1`, the GI50 is 1.48 µM with LOX IMVI melanoma; 1.6 µM in the test with HOP-62 NSCLC; 1.82 µM with SF-295 CNS; 1.78 µM in the test with SK-MEL-28 melanoma; 1.03 µM with HOP-92 NSCLC; 1.67 µM with NCI-H226 lung. Besides, the GI50 in the test on K-562 leukemia was 1.8 µM; in the test on OVCAR-3 ovarian, 1.78 µM; in the test with HT29 colon it was 1.5 µM; with MCF7 breast, 1.74 µM. Further, the TGI is 2.89 µM with LOX IMVI melanoma; 3.2 µM with HOP-62 NSCLC; 3.27 µM in the test with SF-295 CNS; 3.2 µM in the test on SK-MEL-28 melanoma; 2.47 µM in the test on HOP-92 NSCLC; 3.34 µM with NCI-H226 lung. Further, the TGI in the test with K-562 leukemia is 4.71 µM; in the test with OVCAR-3 ovarian, 3.27 µM; with HT29 colon, 3.02 µM; in the test on MCF7 breast, 3.4 µM.

For the molecule `O=C(NCCO)Nc1ccc(-c2nc(N3CCOCC3)c3cccn3n2)cc1`, the GI50 in the test with LOX IMVI melanoma was 0.693 µM; in the test on HOP-62 NSCLC, 0.122 µM; in the test on SF-295 CNS, 0.117 µM; with SK-MEL-28 melanoma, 0.108 µM; in the test with HOP-92 NSCLC it was 0.0466 µM; in the test with NCI-H226 lung it was 0.13 µM. For the same molecule, the GI50 was 2.8 µM in the test with K-562 leukemia, 0.17 µM in the test with OVCAR-3 ovarian, 0.496 µM with HT29 colon and 0.0703 µM with MCF7 breast. The TGI in the test on LOX IMVI melanoma stood at 35.3 µM; in the test on HOP-62 NSCLC it was 3.85 µM; in the test with SF-295 CNS it was 2.13 µM; in the test with SK-MEL-28 melanoma, 4.59 µM; in the test on HOP-92 NSCLC, 1.09 µM; in the test with NCI-H226 lung, 6.33 µM. In addition, the TGI was above 100 µM in the test on K-562 leukemia, 9.82 µM in the test with OVCAR-3 ovarian, above 100 µM with HT29 colon and above 100 µM in the test with MCF7 breast.

As to `O=C(/C=C/c1ccccc1)c1cc(Br)ccc1O`, the TGI in the test on LOX IMVI melanoma was found to be 27.5 µM; with HOP-62 NSCLC, 46.3 µM; in the test with SF-295 CNS, 31.5 µM; with SK-MEL-28 melanoma, 31.5 µM; in the test on HOP-92 NSCLC, 18.3 µM; in the test on NCI-H226 lung, 31.7 µM. In addition, the TGI with K-562 leukemia turned out to be 43.1 µM; in the test with OVCAR-3 ovarian it was 43 µM; with HT29 colon it was 31 µM; with MCF7 breast it was 31.5 µM.

As for `C=CCOc1cccc(/C=C2\SC(=Nc3ccc(O)cc3)NC2=O)c1`, the GI50 in the test on LOX IMVI melanoma was 0.543 µM; with HOP-62 NSCLC, 0.66 µM; in the test with SF-295 CNS, 0.505 µM; with SK-MEL-28 melanoma it was 2.47 µM; in the test on HOP-92 NSCLC it was 0.863 µM; in the test on NCI-H226 lung, 1.21 µM. Moreover, the GI50 in the test with K-562 leukemia is 0.243 µM; in the test with OVCAR-3 ovarian it was 0.284 µM; with HT29 colon it was 3.54 µM; with MCF7 breast it was 0.361 µM. The total growth inhibition concentration (TGI) was determined as 12.7 µM in the test on LOX IMVI melanoma; 13.1 µM in the test with HOP-62 NSCLC; 16.6 µM in the test on SF-295 CNS; 31.2 µM in the test with SK-MEL-28 melanoma; 6.54 µM with HOP-92 NSCLC; 22.6 µM in the test with NCI-H226 lung. The concentration for total growth inhibition (TGI) in the test with K-562 leukemia was above 100 µM; in the test with OVCAR-3 ovarian it was 3.15 µM; in the test with HT29 colon, 29.6 µM; with MCF7 breast, above 57.8 µM.

In the case of `Cc1cc(N(CCCl)CCCl)ccc1C=Nc1ccc(-c2csc(Cc3ccccc3)n2)cc1`, the GI50 with LOX IMVI melanoma was 7.95 µM; with HOP-62 NSCLC, 5.72 µM; in the test on SF-295 CNS, 1.65 µM; in the test with SK-MEL-28 melanoma it was 17.9 µM; in the test with HOP-92 NSCLC, 1.53 µM; in the test on NCI-H226 lung it was 0.596 µM. The GI50 in the test on K-562 leukemia was 9.88 µM; in the test on OVCAR-3 ovarian, 9.17 µM; in the test with HT29 colon, 17.3 µM; in the test on MCF7 breast, 4.66 µM. Besides, the TGI with LOX IMVI melanoma was 20.8 µM; in the test with HOP-62 NSCLC, above 83 µM; with SF-295 CNS, 50.6 µM; with SK-MEL-28 melanoma, 63.1 µM; with HOP-92 NSCLC, 12.3 µM; with NCI-H226 lung, 21.3 µM. The total growth inhibition concentration (TGI) with K-562 leukemia was above 100 µM; with OVCAR-3 ovarian, 27 µM; with HT29 colon, 47.2 µM; in the test with MCF7 breast, 43.3 µM.

`CCCC(=O)OC1C(C(O)CO)OC2OC(C)(C)OC21` (stereo not drawn): the concentration for total growth inhibition (TGI) in the test with LOX IMVI melanoma, in the test with HOP-62 NSCLC, in the test on SF-295 CNS, with SK-MEL-28 melanoma, with HOP-92 NSCLC and with NCI-H226 lung was above 100 µM in each case. The TGI in the test with K-562 leukemia is below 3.16 µM; in the test on OVCAR-3 ovarian, above 100 µM; in the test with HT29 colon, above 100 µM; in the test with MCF7 breast, above 100 µM.

As to `Cn1cccc1-c1cc(-c2cccs2)nc(N)c1C#N`, the GI50 in the test on LOX IMVI melanoma, in the test on HOP-62 NSCLC, in the test on SF-295 CNS, with SK-MEL-28 melanoma, in the test with HOP-92 NSCLC and in the test on NCI-H226 lung was above 100 µM in each case. Also, the GI50 in the test with K-562 leukemia, in the test with OVCAR-3 ovarian, in the test on HT29 colon and in the test on MCF7 breast was above 100 µM each time. The concentration for total growth inhibition (TGI) in the test on LOX IMVI melanoma, with HOP-62 NSCLC, in the test with SF-295 CNS, in the test with SK-MEL-28 melanoma, with HOP-92 NSCLC and in the test with NCI-H226 lung was above 100 µM each time. The TGI in the test with K-562 leukemia, in the test with OVCAR-3 ovarian, with HT29 colon and with MCF7 breast was above 100 µM throughout.

Regarding `OC(c1cc(-c2ccccc2)nc2ccc(Cl)cc12)C1CCCCN1` (stereo not drawn), the GI50 in the test on LOX IMVI melanoma is 1.55 µM; in the test with SF-295 CNS, 1.9 µM; with SK-MEL-28 melanoma it was 1.77 µM; with HOP-92 NSCLC, 2.02 µM; in the test on NCI-H226 lung, 2.19 µM; in the test with K-562 leukemia, 2.54 µM. Moreover, the GI50 was 2.15 µM in the test on OVCAR-3 ovarian, 2.96 µM in the test with HT29 colon and 1.67 µM with MCF7 breast. The TGI with LOX IMVI melanoma stood at 2.91 µM; with SF-295 CNS it was 3.55 µM; in the test with SK-MEL-28 melanoma, 3.36 µM; in the test with HOP-92 NSCLC, 6.87 µM; with NCI-H226 lung, 4.64 µM; in the test on K-562 leukemia, 7.01 µM. Moreover, the figures for the TGI in the test on OVCAR-3 ovarian, in the test on HT29 colon and in the test with MCF7 breast were 5.15 µM, 6.57 µM and 3.14 µM, respectively.

For the origin of these results see PubChem BioAssay (NCI).
